These results are taken from patent US10988451B2, “MCL-1 inhibitors” (Gilead Sciences, Inc., priority 2018, dated 2021).

In one experiment the test system is SKBR3 cells. In words: SKBR3 Cell Viability Assay. The note with it: CellTiter Glo, read-out: MCL-1 CV SKBR3 EC50. It is filed as cell-based. As for the experimental part:
SKBR3 Cell Viability Assay Materials
SKBR3 Cells (ATCC HTB-30) were obtained from ATCC (Manassas, Va.) and cultured in McCoy 5A's medium (ATCC 30-2007)+10% fetal bovine serum (SH30071.03, HyClone, Pittsburgh, Pa.) plus 1× Penicillin-Streptomycin L-glutamine (Corning 30-009-C1, Corning, N.Y.)).
The cell viability assay was conducted in a 384-well tissue culture plate (Grenier 781086, Monroe, N.C.) in a total volume of 70 μL. Test compounds were prepared in 1,000×, serially diluted, and pre-spotted into 384-well tissue culture plate by Echo 555 Liquid Handler (Labcyte Inc., San Jose, Calif.). Seventy μ1 of 6,000 SKBR3 cells were dispensed into each well of the plate and incubated at 37° C. with 5% CO2 for 72 hours. At the end of incubation, 2× CellTiter Glo (CTG) reagents (1 part buffer with 2 parts substrate) (Promega, Madison, Wis.) were prepared, and the plate and the reagent were equilibrated to room temperature for 30 minutes. CTG reagent was added to each plate by Biomek FX at 20 μL/well with 5 times pipetting and mixing to induce cell lysis. Luminescence was read by Envision multimode reader (PerkinElmer). […] Percent inhibition was calculated as followed: % Inhibition=100%*(Well−Neg)/(Pos−Neg) Neg, negative control, DMSO Pos, positive control, 10 μM Puromycin

The target of another experiment is MCL-1/Bim (Homo sapiens (Human), UniProt Q07820). Description: MCL-1/Bim Binding AlphaLISA Assay. The note with it: 6xHis-Mcl-1 (171-327) and biotinylated Bim peptide (51-76). Here is the method: MCL-1/Bim Binding AlphaLISA Assay.
MCL-1/Bim, sequence (Q07820 171-327): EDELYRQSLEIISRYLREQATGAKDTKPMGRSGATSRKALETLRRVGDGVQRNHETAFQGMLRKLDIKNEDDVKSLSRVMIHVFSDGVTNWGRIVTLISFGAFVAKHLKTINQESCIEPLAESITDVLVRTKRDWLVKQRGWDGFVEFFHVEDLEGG
Inhibition of the MCL-1 and Bim interaction was measured in the following AlphaLISA assay.
Recombinant human MCL-1 protein (C-terminal 6×His Tagged Mcl-1 containing residues 171-327) was generated at Gilead Sciences, Inc. (Foster City, Calif.). A biotinylated peptide derived from human Bim (residues 51-76) was purchased from CPC Scientific (Sunnyvale, Calif.). (CPC 834113). AlphaLISA anti-6His-acceptor beads (AL128R), AlphaScreen Streptavidin donor beads (6760002B), and Proxiplate-384 Plus (6008289) were purchased from PerkinElmer.
The AlphaLISA assay was performed in a 384-well Proxiplate in a total volume of 40 μL. The reaction mixture contained 0.0625 nM 6× His-Mcl-1 (171-327), 0.0625 nM biotinylated-Bim peptide, 10 μg/mL AlphaLISA anti-6×His-AlphaLISA acceptor beads, 40 μg/mL AlphaScreen streptavidin donor beads, and serially diluted test compounds in the binding buffer (20 mM Hepes, pH 7.5 (Teknova H1035); 150 mM NaCl (Promega V4221); 0.002% Brij 35 (Thermo Scientific 20150); 1 mM Dithiothreitol (DTT) Solution (Affymetrix 70726); 0.01% BSA (BioLabs B9000S)). 1,000× test compounds were pre-spotted onto 384-well Proxiplate (Labcyte Echo) by Echo 555 Liquid Handler (Labcyte Inc., San Jose, Calif.) followed by incubation of 5 μl Mcl-1(171-327) for 1 hour. Then 5 μL Bim (51-76) was added and incubated for 2 hours. Five μL AlphaLISA anti-6His-AlphaLISA acceptor beads were then added for 1 hour followed by addition of 5 μL AlphaScreen streptavidin donor beads for 1 hour. The reaction plates were then read on an Envision multimode reader (PerkinElmer) using AlphaScreen settings. […] Percent inhibition was calculated as shown below: % Inhibition=100%*(Well−Neg)/(Pos−Neg) Neg: negative control, DMSO Pos: positive control, no Mcl-1 protein, no biotinylated-Bim peptide
In general terms: In Alpha technology, singlet oxygen from a donor bead excites a nearby acceptor bead.

Each structure is given as a SMILES string. Where two headings read alike, the source gives them in different places.

As to `CO[C@H]1/C=C/CCCS(=O)(NC(=O)CCc2ccnn2C)=NC(=O)c2ccc3c(c2)N(C[C@@H]2CC[C@H]21)C[C@@]1(CCCc2cc(Cl)ccc21)CO3` (single isomer, unassigned) [Example 48], in the experiment with SKBR3 cells (Homo sapiens, SK-BR-3, 72 h), the EC50 worked out at 8450 nM. Moreover, on MCL-1/Bim, the IC50 amounted to 3.7 nM. On the same counts, the results for `CO[C@H]1/C=C/CCCS(=O)(NC(=O)CCN(C)C)=NC(=O)c2ccc3c(c2)N(C[C@@H]2CC[C@H]21)C[C@@]1(CCCc2cc(Cl)ccc21)CO3` (stereo partly drawn) [Example 15] are 7730 nM and 7.4 nM. On the same counts, the results for `CC[C@H]1CN2C[C@@]3(CCCc4cc(Cl)ccc43)COc3ccc(cc32)C(=O)N=[S@](=O)(NC(=O)NC(C)C)CCC/C=C/[C@H](OC)[C@@H]1C` [Example 19] are 1080 nM and 1.1 nM. As to `CC[C@H]1CN2C[C@@]3(CCCc4cc(Cl)ccc43)COc3ccc(cc32)C(=O)N=[S@](=O)(NC(=O)Cc2cnccn2)CCC/C=C/[C@H](OC)[C@@H]1C` [Example 20], the EC50 with SKBR3 cells (Homo sapiens, SK-BR-3, 72 h) is 2060 nM. Besides, the IC50 at MCL-1/Bim is 0.5 nM. For the compound `CO[C@H]1/C=C/CCC[S@@](=O)(NC(=O)CCc2ccnn2C)=NC(=O)c2ccc3c(c2)N(C[C@@H]2CC[C@H]21)C[C@@]1(CCCc2cc(Cl)ccc21)CO3` [Example 22], in the experiment on SKBR3 cells (72 hours), the EC50 came to 259 nM. At MCL-1/Bim, this compound showed an IC50 of 0.1 nM. For the compound `CC[C@H]1CN2C[C@@]3(CCCc4cc(Cl)ccc43)COc3ccc(cc32)C(=O)N=[S@](=O)(NC(C)=O)CCC/C=C/[C@H](OC)[C@@H]1C` [Example 25], in the experiment with SKBR3 cells (Homo sapiens, SK-BR-3, 72 h), the 50% effective concentration (EC50) was found to be 2010 nM. This compound also had an IC50 on MCL-1/Bim of 0.6 nM. On the same counts, the results for `CC[C@H]1CN2C[C@@]3(CCCc4cc(Cl)ccc43)COc3ccc(cc32)C(=O)N=[S@](=O)(NC(=O)CC(C)C)CCC/C=C/[C@H](OC)[C@@H]1C` [Example 26] are 1690 nM and 1.8 nM. As for `CO[C@H]1/C=C/CCC[S@@](=O)(NC(=O)NCc2ccc(F)cc2)=NC(=O)c2ccc3c(c2)N(C[C@@H]2CC[C@H]21)C[C@@]1(CCCc2cc(Cl)ccc21)CO3` [Example 37], in the experiment with SKBR3 cells (Homo sapiens, SK-BR-3, 72 h), the EC50 was found to be 1610 nM. The compound also registered an IC50 on MCL-1/Bim of 1.4 nM. As to `CO[C@H]1/C=C/C[C@H](C)[C@@H](C)[S@](=O)(NC(=O)CCc2ccnn2C)=NC(=O)c2ccc3c(c2)N(C[C@@H]2CC[C@H]21)C[C@@]1(CCCc2cc(Cl)ccc21)CO3` [Example 50], the EC50 with SKBR3 cells (Homo sapiens, SK-BR-3, 72 h) was 3320 nM. The compound further showed a 50% inhibitory concentration (IC50) at MCL-1/Bim of 1.4 nM. In the case of `CO[C@H]1/C=C/CCC[S@@](=O)(NC(=O)CCc2ccn(C)n2)=NC(=O)c2ccc3c(c2)N(C[C@@H]2CC[C@H]21)C[C@@]1(CCCc2cc(Cl)ccc21)CO3` [Example 51], the EC50 in the experiment with SKBR3 cells (Homo sapiens, SK-BR-3, 72 h) was 705 nM. At MCL-1/Bim, this compound returned an IC50 of 0.1 nM. With `CO[C@H]1/C=C/C[C@H](C)[C@@H](C)[S@@](=O)(NC(=O)c2cnn(C3COC3)c2)=NC(=O)c2ccc3c(c2)N(C[C@@H]2CC[C@H]21)C[C@@]1(CCCc2cc(Cl)ccc21)CO3` [Example 152], in the experiment on SKBR3 cells (Homo sapiens, SK-BR-3, 72 h), the EC50 came to 55.7 nM. Also, the IC50 at MCL-1/Bim came out at 0.057 nM. Turning to `CO[C@H]1/C=C/C[C@H](C)C[S@@](=O)(NC(=O)c2ccc3c(c2)COCC3)=NC(=O)c2ccc3c(c2)N(C[C@@H]2CC[C@H]21)C[C@@]1(CCCc2cc(Cl)ccc21)CO3` [Example 157], the EC50 in the experiment on SKBR3 cells (Homo sapiens, SK-BR-3, 72 h) is 64.8 nM. This compound registered an IC50 on MCL-1/Bim of 0.234 nM. On the same counts, the results for `COC1Cc2cc(C(=O)N[S@@]3(=O)=NC(=O)c4ccc5c(c4)N(C[C@@H]4CC[C@H]4[C@@H](OC)/C=C/C[C@H](C)C3)C[C@@]3(CCCc4cc(Cl)ccc43)CO5)cn2C1` (stereo partly drawn) [Example 205] are 58.9 nM and 0.075 nM. For the compound `CO[C@H]1/C=C/C[C@H](C)C[S@@](=O)(CC(=O)N[C@@H]2CC[C@@H](O)C2)=NC(=O)c2ccc3c(c2)N(C[C@@H]2CC[C@H]21)C[C@@]1(CCCc2cc(Cl)ccc21)CO3` [Example 222], the EC50 in the experiment on SKBR3 cells (Homo sapiens, SK-BR-3, 72 h) was found to be 80.1 nM. On MCL-1/Bim, this compound yielded an IC50 of 0.044 nM. On the same counts, the results for `COc1nn(C)cc1C(=O)N[S@@]1(=O)=NC(=O)c2ccc3c(c2)N(C[C@@H]2CC[C@H]2[C@@H](O)/C=C/C[C@H](C)[C@H]1C)C[C@@]1(CCCc2cc(Cl)ccc21)CO3` [Example 359] are 19 nM and 0.038 nM. As to `COc1nn(C)cc1C(=O)N[S@@]1(=O)=NC(=O)c2ccc3c(c2)N(C[C@@H]2CC[C@H]2[C@@H](OC)/C=C/[C@H](OC(=O)CCc2ccccc2)[C@H](C)C1)C[C@@]1(CCCc2cc(Cl)ccc21)CO3` [Example 377], the EC50 in the experiment on SKBR3 cells (72 hours) stood at 34 nM. Also, the IC50 on MCL-1/Bim worked out at 0.106 nM. Compound `CO[C@H]1/C=C/C[C@H](C)C[S@@](=O)(NC(=O)C2CC(OC(F)F)C2)=NC(=O)c2ccc3c(c2)N(C[C@@H]2CC[C@H]21)C[C@@]1(CCCc2cc(Cl)ccc21)CO3` (stereo partly drawn) [Example 431] returned an IC50 on MCL-1/Bim of 0.121 nM.

The term EC50 denotes the concentration at which the effect is half-maximal. As usually defined, the IC50 is the concentration that gives 50% inhibition. The low end stands for greater potency, the high end for weaker potency.
